Measured values: patent US11793849B2, “Method of Chinese herbal medicine extract used for treating multiple diseases caused by drug resistant bacteria infection” (priority 2016, dated 2023)
In brackets after ≈: the same amount, converted by molar mass. Where two headings read alike, the source gives them in different places.

Test system: MDRAB
Experiment: MIC determination, microdilution broth method
Assay type: cell-based, Acinetobacter baumannii
Details: Acinetobacter baumannii
Method: Determination methods of a Minimal Inhibitory Concentration (MIC) and a Minimum Bactericidal Concentration (MBC) of a test product: the MIC and the MBC of the Pithecellobium clypearia Benth water or ethanol extract to the MDRAB are determined by a microdilution broth method. And it is operated by referring to the microdilution broth method recommended by National Committee for Clinical Laboratory Standards (NCCLS).

Work on `C[C@H]1COc2c(N3CCN(C)CC3)c(F)cc3c(=O)c(C(=O)O)cn1c23` [LVX, Levofloxacin] yielded an MIC (strain A1, EA=60% ethanol extract, read-out: MIC) of 0.5 µg/mL (≈ 1.38 µM), an MIC (strain A1, EA=95% ethanol extract, read-out: MIC) of 0.5 µg/mL (≈ 1.38 µM) and an MIC (strain A1, EA=P. clypearia 95% ethanol extract, read-out: single-use MIC) of 0.5 µg/mL (≈ 1.38 µM). It also gave an MIC (strain A1, single use, EA=10% ethanol extract, read-out: MIC) of 0.5 µg/mL (≈ 1.38 µM), an MIC (strain A1, single use, EA=water extract, read-out: MIC) of 0.5 µg/mL (≈ 1.38 µM) and an MIC (strain A2, EA=60% ethanol extract, read-out: MIC) of 16 µg/mL (≈ 44.3 µM). The MIC (strain A2, EA=95% ethanol extract, read-out: MIC) was 16 µg/mL (≈ 44.3 µM), the MIC (strain A2, EA=P. clypearia 95% ethanol extract, read-out: single-use MIC) was 16 µg/mL (≈ 44.3 µM) and the MIC (strain A2, single use, EA=10% ethanol extract, read-out: MIC) was 16 µg/mL (≈ 44.3 µM). For the same compound, the MIC (strain A2, single use, EA=water extract, read-out: MIC) was 16 µg/mL (≈ 44.3 µM), the MIC (strain A3, EA=60% ethanol extract, read-out: MIC) was 4 µg/mL (≈ 11.1 µM) and the MIC (strain A3, EA=95% ethanol extract, read-out: MIC) was 4 µg/mL (≈ 11.1 µM). For the same compound, the MIC (strain A3, EA=P. clypearia 95% ethanol extract, read-out: single-use MIC) was 16 µg/mL (≈ 44.3 µM), the MIC (strain A3, single use, EA=10% ethanol extract, read-out: MIC) was 4 µg/mL (≈ 11.1 µM) and the MIC (strain A4, EA=60% ethanol extract, read-out: MIC) was 0.5 µg/mL (≈ 1.38 µM). It also gave an MIC (strain A4, EA=95% ethanol extract, read-out: MIC) of 0.5 µg/mL (≈ 1.38 µM), an MIC (strain A4, EA=P. clypearia 95% ethanol extract, read-out: single-use MIC) of 0.5 µg/mL (≈ 1.38 µM) and an MIC (strain A4, single use, EA=10% ethanol extract, read-out: MIC) of 0.5 µg/mL (≈ 1.38 µM). For the same compound, the MIC (strain A4, single use, EA=water extract, read-out: MIC) was 0.5 µg/mL (≈ 1.38 µM), the MIC (strain A5, EA=60% ethanol extract, read-out: MIC) was 4 µg/mL (≈ 11.1 µM) and the MIC (strain A5, EA=95% ethanol extract, read-out: MIC) was 4 µg/mL (≈ 11.1 µM). It also gave an MIC (strain A5, single use, EA=10% ethanol extract, read-out: MIC) of 4 µg/mL (≈ 11.1 µM), an MIC (strain A5, single use, EA=water extract, read-out: MIC) of 4 µg/mL (≈ 11.1 µM) and an MIC (strain A6, EA=60% ethanol extract, read-out: MIC) of 8 µg/mL (≈ 22.1 µM). For the same compound, the MIC (strain A6, EA=95% ethanol extract, read-out: MIC) was 8 µg/mL (≈ 22.1 µM), the MIC (strain A6, EA=P. clypearia 95% ethanol extract, read-out: single-use MIC) was 8 µg/mL (≈ 22.1 µM) and the MIC (strain A6, single use, EA=10% ethanol extract, read-out: MIC) was 8 µg/mL (≈ 22.1 µM). For the same compound, the MIC (strain A6, single use, EA=water extract, read-out: MIC) was 8 µg/mL (≈ 22.1 µM), the MIC (strain A7, EA=60% ethanol extract, read-out: MIC) was 8 µg/mL (≈ 22.1 µM) and the MIC (strain A7, EA=95% ethanol extract, read-out: MIC) was 8 µg/mL (≈ 22.1 µM). For the same compound, the MIC (strain A7, EA=P. clypearia 95% ethanol extract, read-out: single-use MIC) was 8 µg/mL (≈ 22.1 µM), the MIC (strain A7, single use, EA=10% ethanol extract, read-out: MIC) was 8 µg/mL (≈ 22.1 µM) and the MIC (strain A7, single use, EA=water extract, read-out: MIC) was 8 µg/mL (≈ 22.1 µM). The MIC (strain A8, EA=60% ethanol extract, read-out: MIC) was 4 µg/mL (≈ 11.1 µM), the MIC (strain A8, EA=95% ethanol extract, read-out: MIC) was 4 µg/mL (≈ 11.1 µM) and the MIC (strain A8, EA=P. clypearia 95% ethanol extract, read-out: single-use MIC) was 4 µg/mL (≈ 11.1 µM). The MIC (strain A8, single use, EA=10% ethanol extract, read-out: MIC) was 4 µg/mL (≈ 11.1 µM), the MIC (strain A8, single use, EA=water extract, read-out: MIC) was 4 µg/mL (≈ 11.1 µM) and the MIC (strain A9, EA=60% ethanol extract, read-out: MIC) was 4 µg/mL (≈ 11.1 µM). The MIC (strain A9, EA=95% ethanol extract, read-out: MIC) was 4 µg/mL (≈ 11.1 µM), the MIC (strain A9, EA=P. clypearia 95% ethanol extract, read-out: single-use MIC) was 4 µg/mL (≈ 11.1 µM) and the MIC (strain A9, single use, EA=10% ethanol extract, read-out: MIC) was 4 µg/mL (≈ 11.1 µM). The MIC (strain A9, single use, EA=water extract, read-out: MIC) was 4 µg/mL (≈ 11.1 µM), the MIC (strain A10, EA=60% ethanol extract, read-out: MIC) was 32 µg/mL (≈ 88.6 µM) and the MIC (strain A10, EA=95% ethanol extract, read-out: MIC) was 32 µg/mL (≈ 88.6 µM). For the same compound, the MIC (strain A10, EA=P. clypearia 95% ethanol extract, read-out: single-use MIC) was 32 µg/mL (≈ 88.6 µM), the MIC (strain A10, single use, EA=10% ethanol extract, read-out: MIC) was 32 µg/mL (≈ 88.6 µM) and the MIC (strain A10, single use, EA=water extract, read-out: MIC) was 32 µg/mL (≈ 88.6 µM). It also gave an MIC (strain A11, EA=60% ethanol extract, read-out: MIC) of 4 µg/mL (≈ 11.1 µM), an MIC (strain A11, EA=95% ethanol extract, read-out: MIC) of 4 µg/mL (≈ 11.1 µM) and an MIC (strain A11, EA=P. clypearia 95% ethanol extract, read-out: single-use MIC) of 4 µg/mL (≈ 11.1 µM). It also gave an MIC (strain A11, single use, EA=10% ethanol extract, read-out: MIC) of 4 µg/mL (≈ 11.1 µM), an MIC (strain A11, single use, EA=water extract, read-out: MIC) of 4 µg/mL (≈ 11.1 µM) and an MIC (strain A12, EA=60% ethanol extract, read-out: MIC) of 32 µg/mL (≈ 88.6 µM). It also gave an MIC (strain A12, EA=95% ethanol extract, read-out: MIC) of 32 µg/mL (≈ 88.6 µM), an MIC (strain A12, EA=P. clypearia 95% ethanol extract, read-out: single-use MIC) of 32 µg/mL (≈ 88.6 µM) and an MIC (strain A12, single use, EA=10% ethanol extract, read-out: MIC) of 32 µg/mL (≈ 88.6 µM). For the same compound, the MIC (strain A12, single use, EA=water extract, read-out: MIC) was 32 µg/mL (≈ 88.6 µM), the MIC (strain A13, EA=60% ethanol extract, read-out: MIC) was 32 µg/mL (≈ 88.6 µM) and the MIC (strain A13, EA=95% ethanol extract, read-out: MIC) was 32 µg/mL (≈ 88.6 µM). The MIC (strain A13, EA=P. clypearia 95% ethanol extract, read-out: single-use MIC) was 32 µg/mL (≈ 88.6 µM).
